These results are taken from publication PMC4669789, “Selective inhibition of HDAC8 decreases neuroblastoma growth in vitro and in vivo and enhances retinoic acid-mediated differentiation” (Cell Death & Disease, 2015).

The test system of series [1] is BE(2)-C cells. Briefly: Longer-term colony assay. Format: cell-based, human. The note with it: ATRA 10 μM, 18 days, empty vector control cells.
Experimental: In six-well plates, 500 cells were seeded and treated as indicated. Viable colonies were stained after a minimum of 10 days with crystal violet. For quantification, the mean intensity of each well of the 8-bit binary picture was measured with ImageJ software (U. S. National Institutes of Health, Bethesda, MD, USA; http://imagej.nih.gov/ij/).
The subject of series [2] is BE(2)-C cells. In words: Western blot of histone 4, α-tubulin and SMC3 acetylation. Format: cell-based, human. The note with it: working concentrations: 40 μM Cpd2, 4 μM PCI-34051 and PCI-48000. How it is done:
Western blot analysis was performed as described previously.[15] For detection of phosphoproteins, PhosStop (Roche, Penzberg, Germany) was added to the lysis buffer.

The subject of series [3] is neuroblastoma cell culture. Briefly: Intracellular whole lysine acetylation via FACS. Format: cell-based, human. How it is done:
Cells were collected, washed with PBS and fixed with 2% paraformaldehyde for 15 min at room temperature (RT). Cells were permeabilized by incubation with 50 μg/ml digitonin for 6 min at RT. Cells were incubated with primary antibody overnight at 4 °C. After staining with Cy3-conjugated anti-rabbit antibody, cells were analyzed by FACS using CellQuest software (BD Biosciences, San Jose, CA, USA). The following primary antibodies were used: anti-acetylated lysine (polyclonal; Cell Signaling) and anti-neurofilament-M (clone EP2460; Epitomics, Burlingame, CA, USA).

Series [4] deals with PBMCs. Briefly: Whole lysine acetylation in PBMC after intraperitoneal administration (FACS). The series is classed as in vivo, mouse. The note with it: 150 mg/kg/d; solvent 32.1.
Experimental: Both inhibitors were intraperitoneally injected into NMRI Foxn1 nude mice in increasing doses from 40 up to 400 mg/kg per day for 2 × 5 days. Each dose was tested in a cohort of three animals. Resulting MTDs were validated within cohorts of eight animals for each inhibitor. […] As a reference, the blood of 12 untreated NMRI Foxn1 nude mice was analyzed. […] Vorinostat was used as a control for unselective HDAC inhibition.
Whole blood (100 μl) was collected from the femoral vein of untreated athymic NMRI nude mice (HsdCpb:NMRI-Foxn1^nu; Harlan Laboratories Inc.), and respective animals were killed 2 h after intraperitoneal injection of substances. For the analysis of whole acetylation levels, mice were killed at half-life time of the inhibitors. Whole blood with heparin was added to RBC lysis buffer (diluted 1 : 10) (BioLegend, San Diego, CA, USA) at a ratio of 1 : 4. Next, red blood cell lysis was performed according to the manufacturer's instructions. PBMCs were lysed in SDS lysis buffer for western blot or processed for FACS analysis.
The subject of series [5] is nude mice. Briefly: Tolerability during xenograft and long-term treatment (body weight, clinical signs). The settings on record: mouse, in vivo. The source says:
Next, we determined the in vivo efficacy of HDAC8-selective inhibition in neuroblastoma xenograft mouse models. […] One week after tumor cell injection, mice established a palpable tumor mass and the animals were then randomly assigned to treatment and control cohorts.

For series [6], the system named is NMRI Foxn1 nude mice. The settings on record: mouse, in vivo; cited from earlier work.

`CC1=C(/C=C/C(C)=C/C=C/C(C)=C/C(=O)O)C(C)(C)CCC1` [ATRA, all-trans retinoic acid]: the colony formation result in series [1] was “efficiently reduced the ability of empty vector control cells to form colonies”.

Turning to `COc1ccc(Cn2ccc3ccc(C(=O)NO)cc32)cc1` [PCI-34051], in series [2], the “SMC3 acetylation (HDAC8 substrate)” value was “increase in acetylation level”, the “histone 4 acetylation (HDAC1-3 substrate)” value is “absence of HDAC1-3 substrate acetylation” and the “tubulin acetylation (HDAC6 substrate)” value is on record as “absence of HDAC6 substrate acetylation”.

On to `CC(/C=C/C(=O)NO)=C\[C@@H](C)C(=O)c1ccc(N(C)C)cc1` [TSA, trichostatin A], for which the “whole acetyl-lysine mean fluorescent values (Blank-corrected)” value in series [3] (75nM, solvent 34.4, second experiment) came out at 92.7; in series [3] (150nM, solvent 24.7, IMR-32 cells, 24 h per Figure 1c), 115.1. For the same compound, the global lysine acetylation entry in series [3] (pan-HDAC inhibitor control, compared with HDAC8 inhibitors) is listed as “much stronger induction of global lysine acetylation”.

With `O=C(CCCCCCC(=O)Nc1ccccc1)NO` [vorinostat, suberoylanilide hydroxamic acid], the “whole acetyl-lysine mean fluorescent values (Blank-corrected), PBMCs” value in series [4] was 54.0. In addition, the “tolerability at the applied dose” value in series [5] was “clear signs of toxicity, such as diarrhea and weight loss”. Besides, the MTD in series [6] is listed as 150 mg/kg per day.
